Data on nine compounds can be found in patent publication US10681909B2, “Herbicidal triazoles” (FMC Corporation, priority 2014, dated 2020).

For assay [1], the system named is morningglory. In words: Test A preemergence. Format: in vivo, Ipomoea spp. The following applies: Ipomoea, pre-emergence, 240 h, 0 to 100 scale (0 no effect, 100 complete control), read-out: Plant response rating, Morningglory; for pest or weed control at 125 g/ha: 125 g ai/ha; for pest or weed control at 500 g/ha: 500 g ai/ha, approx. 10 d. In short, it runs like this:
(§1)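 Herbicidal response was scored on plants treated pre- or postemergence with surfactant-containing, non-phytotoxic solvent formulations. Preemergence meant a directed spray onto soil (loam–sand) holding sown seed; postemergence plants were at one to two leaves.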

Assay [2] concerns morningglory. Kind of assay: Test A postemergence. Format: in vivo, Ipomoea spp. As to conditions: Ipomoea, post-emergence, 240 h, 0 to 100 scale (0 no effect, 100 complete control), approx. 10 d, read-out: Plant response rating, Morningglory; for pest or weed control at 125 g/ha: 125 g ai/ha; for pest or weed control at 500 g/ha: 500 g ai/ha. In short, it runs like this: as §1
The subject of a further assay is blackgrass. Kind of assay: Test C preemergence. It is filed as in vivo, Alopecurus myosuroides. As to conditions: for Plant response rating (scale of 0 to 100 where 0 is no effect and 100 is complete control): Blackgrass, preemergence; for Blackgrass plant response rating (0 to 100): Preemergence, visual rating after 13 to 15 d. An excerpt:
(§2) Seeds of plant species selected from blackgrass (Alopecurus myosuroides), ryegrass, Italian (Italian ryegrass, Lolium multiflorum), wheat (winter wheat, Triticum aestivum), galium (catchweed bedstraw, Galium aparine), corn (Zea mays), crabgrass, large (large crabgrass, Digitaria sanguinalis), foxtail, giant, (giant foxtail, Setaria faberii), johnsongrass (Sorghum halepense), lambsquarters (Chenopodium album), morningglory (Ipomoea coccinea), nutsedge, yellow (yellow nutsedge, Cyperus esculentus), pigweed (Amaranthus retroflexus), ragweed (common ragweed, Ambrosia elatior), soybean (Glycine max), barnyardgrass (Echinochloa crus-galli), oilseed rape (Brassica napus), waterhemp (common waterhemp, Amaranthus rudis), and velvetleaf (Abutilon theophrasti) were planted into a blend of loam soil and sand and treated preemergence with test chemicals formulated in a non-phytotoxic solvent mixture which included a surfactant. At the same time, plants selected from these crop and weed species and also chickweed (common chickweed, Stellaria media), oat, wild (wild oat, Avena fatua), and kochia (Kochia scoparia), were planted in pots containing Sunshine Redi-Earth® planting medium comprising spaghnum peat moss, vermiculite, starter nutrients and dolomitic limestone and treated with postemergence applications of test chemicals formulated in the same manner. Plants ranged in height from 2 to 18 cm (1- to 4-leaf stage) for postemergence treatments. […] A dash (-) response means no test result.

For the next assay, the system named is corn. In words: Test C preemergence. It is filed as in vivo, Zea mays. As to conditions: for Plant response rating (scale of 0 to 100 where 0 is no effect and 100 is complete control): Corn, preemergence; for Corn plant response rating (0 to 100): Preemergence, visual rating after 13 to 15 d.
Excerpt: as §2

A further assay has as its system crabgrass, large. In words: Test C preemergence. As to conditions: for Plant response rating (scale of 0 to 100 where 0 is no effect and 100 is complete control): Crabgrass, Large, preemergence; for Crabgrass, Large plant response rating (0 to 100): Preemergence, visual rating after 13 to 15 d. Format: in vivo, Digitaria sanguinalis.
Excerpt: as §2

In the next assay the test system is soybean. Kind of assay: Test C preemergence. Format: in vivo, Glycine max. As to conditions: for Soybean plant response rating (0 to 100): Preemergence, visual rating after 13 to 15 d; for Plant response rating (scale of 0 to 100 where 0 is no effect and 100 is complete control): Soybean, preemergence, 250 g ai/ha.
Excerpt: as §2

The test system of another assay is velvetleaf. Kind of assay: Test C preemergence. It is filed as in vivo, Abutilon theophrasti. As to conditions: for Velvetleaf plant response rating (0 to 100): Preemergence, visual rating after 13 to 15 d; for Plant response rating (scale of 0 to 100 where 0 is no effect and 100 is complete control): Velvetleaf, preemergence, 250 g ai/ha.
Excerpt: as §2

With `Cn1nc(-c2ccc(F)cc2)nc1C(O)c1ccnc(C(F)(F)F)c1` (stereo not drawn) [Compound 14, α-[3-(4-fluorophenyl)-1-methyl-1H-1,2,4-triazol-5-yl]-2-(trifluoromethyl)-4-pyridinemethanol], in the assay with morningglory [1], the pest or weed control at 125 g/ha was 0% and the pest or weed control at 500 g/ha was 0%. For the same compound, in the assay with morningglory [2], the pest or weed control at 125 g/ha was 40% and the pest or weed control at 500 g/ha amounted to 80%.

For the compound `CCn1nc(-c2ccc(F)cc2)nc1C(O)c1ccnc(C(F)(F)F)c1` (stereo not drawn) [Compound 15, α-[1-Ethyl-3-(4-fluorophenyl)-1H-1,2,4-triazol-5-yl]-2-(trifluoromethyl)-4-pyridinemethanol], in the assay with morningglory [1], the pest or weed control at 125 g/ha came to 0% and the pest or weed control at 500 g/ha worked out at 0%. Besides, in the assay on morningglory [2], the pest or weed control at 125 g/ha is 0% and the pest or weed control at 500 g/ha worked out at 10%.

For the compound `CCCn1nc(-c2ccc(F)cc2)nc1Cc1ccnc(C(F)(F)F)c1` [Compound 17, 4-[[3-(4-fluorophenyl)-1-propyl-1H-1,2,4-triazol-5-yl]methyl]-2-(trifluoromethyl)pyridine], in the assay on morningglory [1], the pest or weed control at 125 g/ha was determined as 70% and the pest or weed control at 500 g/ha came out at 90%. For the same compound, in the assay on morningglory [2], the pest or weed control at 125 g/ha was 70% and the pest or weed control at 500 g/ha was found to be 100%.

As to `CCn1nc(-c2ccc(F)cc2)nc1C(=O)c1ccnc(C(F)(F)F)c1` [Compound 19, [1-ethyl-3-(4-fluorophenyl)-1H-1,2,4-triazol-5-yl][2-(trifluoromethyl)-4-pyridinyl]methanone], in the assay on morningglory [1], the pest or weed control at 125 g/ha was 0% and the pest or weed control at 500 g/ha is 0%. In the assay with morningglory [2], the pest or weed control at 125 g/ha is 0% and the pest or weed control at 500 g/ha was determined as 0%.

As to `Cn1nc(-c2ccc(F)cc2)nc1Oc1cccc(C(F)(F)F)c1` [Compound 5, 3-(4-fluorophenyl)-1-methyl-5-[3-(trifluoromethyl)phenoxy]-1H-1,2,4-triazole], the pest or weed control at 125 g/ha in the assay with morningglory [1] was found to be 0%; in the assay on morningglory [2], 50%. The pest or weed control at 500 g/ha with morningglory [1] was 0%; with morningglory [2] it was 100%.

`COc1nc(-c2ccccc2)nn1Cc1ccnc(C(F)(F)F)c1` [Compound 32]: the “Plant response rating (scale of 0 to 100 where 0 is no effect and 100 is complete control)” value with blackgrass (125 g ai/ha) is reported as 10; with blackgrass (250 g ai/ha), 90; with corn (125 g ai/ha), 5; in the assay with corn (250 g ai/ha) it was 20; in the assay on crabgrass, large (125 g ai/ha) it was 100; with crabgrass, large (250 g ai/ha) it was 98. In addition, the “Plant response rating (scale of 0 to 100 where 0 is no effect and 100 is complete control)” value with soybean turned out to be 5; with velvetleaf it was 60. Also, the “Blackgrass plant response rating (0 to 100)” value in the assay with blackgrass (31 g ai/ha) and in the assay with blackgrass (62 g ai/ha) was 0 each time. Besides, the “Corn plant response rating (0 to 100)” value in the assay on corn (31 g ai/ha) and with corn (62 g ai/ha) was 0 each time. The “Crabgrass, Large plant response rating (0 to 100)” value (“Crabgrass … (0 to 100)” below) is 65 in the assay on crabgrass, large (31 g ai/ha) and 90 in the assay with crabgrass, large (62 g ai/ha). In addition, the “Soybean plant response rating (0 to 100)” value in the assay on soybean (31 g ai/ha) and with soybean (62 g ai/ha) was 0 each time. For the same compound, the “Velvetleaf plant response rating (0 to 100)” value with velvetleaf (31 g ai/ha) came to 20; in the assay with velvetleaf (62 g ai/ha) it was 10.

Take `CS(=O)(=O)c1nc(-c2ccc(F)cc2)nn1Cc1ccnc(C(F)(F)F)c1` [Compound 29, 4-[[3-(4-fluorophenyl)-5-(methylsulfonyl)-1H-1,2,4-triazole-1-yl]methyl]-2-(trifluoromethyl)pyridine]: the pest or weed control at 125 g/ha in the assay with morningglory [1] and with morningglory [2] was 0% throughout. Further, the pest or weed control at 500 g/ha in the assay on morningglory [1] and with morningglory [2] was 0% each time.

For the compound `CCCc1nc(-c2ccc(F)cc2)nn1Cc1ccnc(C(F)(F)F)c1` [Compound 6, 4-[[3-(4-fluorophenyl)-5-propyl-1H-1,2,4-triazol-1-yl]methyl]-2-(trifluoromethyl)pyridine], the pest or weed control at 125 g/ha is 50% in the assay on morningglory [1] and 100% in the assay on morningglory [2]. The pest or weed control at 500 g/ha with morningglory [1] and in the assay with morningglory [2] was 100% each time. Besides, the “Plant response rating (scale of 0 to 100 where 0 is no effect and 100 is complete control)” value in the assay on blackgrass (125 g ai/ha) was 95; in the assay on blackgrass (250 g ai/ha) it was 95; in the assay with corn (125 g ai/ha), 50; in the assay on corn (250 g ai/ha) it was 50; with crabgrass, large (125 g ai/ha), 100; in the assay on crabgrass, large (250 g ai/ha), 100. For the same compound, the “Plant response rating (scale of 0 to 100 where 0 is no effect and 100 is complete control)” value was determined as 70 in the assay with soybean and 100 in the assay on velvetleaf. Also, the entries for the “Blackgrass plant response rating (0 to 100)” value with blackgrass (31 g ai/ha) and in the assay with blackgrass (62 g ai/ha) were 70 and 90, respectively. Moreover, the entries for the “Corn plant response rating (0 to 100)” value with corn (31 g ai/ha) and in the assay with corn (62 g ai/ha) were 15 and 35, respectively. Besides, the “Crabgrass … (0 to 100)” value in the assay with crabgrass, large (31 g ai/ha) is reported as 100; in the assay with crabgrass, large (62 g ai/ha) it was 100. The “Soybean plant response rating (0 to 100)” value in the assay with soybean (31 g ai/ha) and in the assay with soybean (62 g ai/ha) was 5 in each case. Also, the “Velvetleaf plant response rating (0 to 100)” value with velvetleaf (31 g ai/ha) is on record as 20; with velvetleaf (62 g ai/ha), 75.

With `COc1nc(-c2ccc(F)cc2)nn1Cc1ccnc(C(F)(F)F)c1` [Compound 9, 4-[[3-(4-fluorophenyl)-5-methoxy-1H-1,2,4-triazol-1-yl]methyl]-2-(trifluoromethyl)pyridine], the pest or weed control at 125 g/ha came to 10% in the assay on morningglory [1] and 90% with morningglory [2]. Further, the pest or weed control at 500 g/ha in the assay with morningglory [1] came out at 90%; in the assay on morningglory [2], 100%. Moreover, the “Plant response rating (scale of 0 to 100 where 0 is no effect and 100 is complete control)” value turned out to be 90 in the assay with blackgrass (125 g ai/ha); 90 in the assay on blackgrass (250 g ai/ha); 25 with corn (125 g ai/ha); 55 in the assay with corn (250 g ai/ha); 100 with crabgrass, large (125 g ai/ha); 100 in the assay on crabgrass, large (250 g ai/ha). In addition, the “Plant response rating (scale of 0 to 100 where 0 is no effect and 100 is complete control)” value turned out to be 40 in the assay on soybean and 60 in the assay on velvetleaf. Also, the figures for the “Blackgrass plant response rating (0 to 100)” value in the assay with blackgrass (31 g ai/ha) and in the assay on blackgrass (62 g ai/ha) were 5 and 85, respectively. The “Corn plant response rating (0 to 100)” value in the assay with corn (31 g ai/ha) amounted to 0; in the assay with corn (62 g ai/ha), 5. Further, the “Crabgrass … (0 to 100)” value worked out at 95 in the assay with crabgrass, large (31 g ai/ha) and 100 in the assay on crabgrass, large (62 g ai/ha). Also, the “Soybean plant response rating (0 to 100)” value with soybean (31 g ai/ha) and in the assay with soybean (62 g ai/ha) was 0 throughout. The “Velvetleaf plant response rating (0 to 100)” value was 20 in the assay on velvetleaf (31 g ai/ha) and 25 in the assay on velvetleaf (62 g ai/ha).
